Laboratory results published in the supplement of paper PMC11061612.

How the values were obtained:
Assay in all cases: combination Emax (second highest fraction inhibited in the dose matrix, 72 h); higher = more inhibition; extreme values may be limits of the assay
[1] = test system: CAL-148 (Breast Carcinoma)
Method in brief: (§1)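 After 24 hours at 37°C and 5% CO2 in 1536-well plates, cells in DMEM/F12 or RPMI plus 10% FBS received two-drug dose matrices for 72 hours. Viability came from CellTiter-Glo 2.0 luminescence and was scaled as inhibition, anchored at 0 by vehicle wells and at 1 by blank wells. Combination Emax is taken as the second-highest inhibition in the matrix, and Bliss excess as the observed combination effect less EA + EB − EA·EB, with EA and EB the single-agent effects.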

[2] = test system: CCRF-CEM (T-Lymphoblastic Leukemia)
Method in brief: as §1

[3] = test system: CaR-1 (Colorectal Carcinoma)
Method in brief: as §1

[4] = test system: Calu-3 (Lung Adenocarcinoma)
Method in brief: as §1

[5] = test system: HO-1-N-1 (Oral Cavity Carcinoma)
Method in brief: as §1

HOS (Osteosarcoma) = test system: HOS (Osteosarcoma)
Method in brief: as §1

[6] = test system: HT-1376 (Bladder Carcinoma)
Method in brief: as §1

[7] = test system: Hs-578-T (Breast Carcinoma)
Method in brief: as §1

KELLY (Neuroblastoma) = test system: KELLY (Neuroblastoma)
Method in brief: as §1

[8] = test system: KURAMOCHI (Ovarian Carcinoma)
Method in brief: as §1

[9] = test system: LB831-BLC (Bladder Carcinoma)
Method in brief: as §1

[10] = test system: ME-1 (Acute Myeloid Leukemia)
Method in brief: as §1

[11] = test system: NCI-H2085 (Non-Small Cell Lung Carcinoma)
Method in brief: as §1

[12] = test system: NCI-H82 (Small Cell Lung Carcinoma)
Method in brief: as §1

[13] = test system: RO82-W-1 (Thyroid Gland Carcinoma)
Method in brief: as §1

[14] = test system: Ramos-2G6-4C10 (Burkitt's Lymphoma)
Method in brief: as §1

T98G (Glioblastoma) = test system: T98G (Glioblastoma)
Method in brief: as §1

[15] = test system: TE-15 (Esophageal Squamous Cell Carcinoma)
Method in brief: as §1

[16] = test system: TE-9 (Esophageal Squamous Cell Carcinoma)
Method in brief: as §1

[17] = test system: UM-UC-3 (Bladder Carcinoma)
Method in brief: as §1

| SMILES | combination Emax [1] | combination Emax [2] | combination Emax [3] | combination Emax [4] | combination Emax [5] | combination Emax (HOS (Osteosarcoma)) | combination Emax [6] | combination Emax [7] | combination Emax (KELLY (Neuroblastoma)) | combination Emax [8] | combination Emax [9] | combination Emax [10] | combination Emax [11] | combination Emax [12] | combination Emax [13] | combination Emax [14] | combination Emax (T98G (Glioblastoma)) | combination Emax [15] | combination Emax [16] | combination Emax [17] |
| --- | --- | --- | --- | --- | --- | --- | --- | --- | --- | --- | --- | --- | --- | --- | --- | --- | --- | --- | --- | --- |
| O=C(c1cc(Cc2n[nH]c(=O)c3ccccc23)ccc1F)N1CCN(C(=O)C2CC2)CC1 [Olaparib] + COc1nnc2ccc(N3CCC(c4ccc(OCCN5CCN(C)C(=O)[C@H]5C)cc4)CC3)nn12 [AZD5153] (first compound max 10 µM, 7x7, partner max 1 µM) | 0.73 | 0.714 | 0.277 | 0.516 | 0.604 | 0.402 | 0.0928 | 0.729 | 0.397 | 0.772 | 0.465 | 0.403 | 0.383 | 0.535 | 0.274 | 0.611 | 0.408 | 0.516 | 0.189 | 0.359 |
| O=C(c1cc(Cc2n[nH]c(=O)c3ccccc23)ccc1F)N1CCN(C(=O)C2CC2)CC1 [Olaparib] + Cc1c2c(nn1C)CSCc1cc(n(C)n1)CSc1cc(c3ccccc3c1)OCCCc1c(C(=O)O)n(C)c3c-2c(Cl)ccc13 [AZD5991] (first compound max 10 µM, 7x7, partner max 1 µM) | 0.635 | 0.271 | 0.13 | 0.0927 | 0.78 | 0.254 | 0.0928 | 0.489 | 0.934 | 0.28 | 0.136 | 0.551 | 0.0831 | 0.899 | 0.147 | 0.978 | 0.223 | 0.29 | 0.202 | 0.0695 |
| N#Cc1cnc(Nc2cc(NC[C@H]3CNCCO3)c(C(F)(F)F)cn2)cn1 [SRA737] + C=CCn1c(=O)c2cnc(Nc3ccc(N4CCN(C)CC4)cc3)nc2n1-c1cccc(C(C)(C)O)n1 [AZD1775] (first compound max 10 µM, partner max 1 µM) | 0.969 | 0.995 | 0.408 | 0.495 | 0.666 | 0.811 | 0.387 | 0.783 | 1 | 0.717 | 0.721 | 0.566 | 0.882 | 0.985 | 0.116 | 1 | 0.9 | 0.821 | 0.7 | 0.471 |
| N#Cc1cnc(Nc2cc(NC[C@H]3CNCCO3)c(C(F)(F)F)cn2)cn1 [SRA737] + CCc1c2c(nc3ccc(O)cc13)-c1cc3c(c(=O)n1C2)COC(=O)[C@]3(O)CC [SN-38] (first compound max 10 µM, 7x7, partner max 0.3 µM) | 0.907 | 1 | 0.791 | 0.674 | 0.975 | 0.849 | 0.566 | 0.804 | 1 | 0.9 | 0.904 | 0.675 | 0.665 | 0.967 | 0.214 | 1 | 0.921 | 0.931 | 0.589 | 0.967 |
| N#Cc1cnc(Nc2cc(NC[C@H]3CNCCO3)c(C(F)(F)F)cn2)cn1 [SRA737] + Nc1ccn([C@@H]2O[C@H](CO)[C@@H](O)C2(F)F)c(=O)n1 [Gemcitabine] (first compound max 10 µM, 7x7, partner max 0.3 µM) | 0.845 | 1 | 0.67 | 0.67 | 1 | 0.752 | 0.442 | 0.837 | 1 | 0.673 | 0.911 | 0.66 | 0.595 | 0.978 | 0.212 | 0.976 | 0.825 | 0.923 | 0.52 | 0.966 |
| N#Cc1cnc(Nc2cc(NC[C@H]3CNCCO3)c(C(F)(F)F)cn2)cn1 [SRA737] + O=c1[nH]cc(F)c(=O)[nH]1 [5-Fluorouracil] (first compound max 10 µM, 7x7, partner max 20 µM) | 0.497 | 0.99 | 0.229 | 0.213 | 0.473 | 0.435 | 0.175 | 0.612 | 1 | 0.606 | 0.34 | 0.471 | 0.501 | 0.816 | 0.144 | 0.84 | 0.837 | 0.705 | 0.469 | 0.208 |
| Cc1nc(-c2cn3c(n2)-c2ccc(-c4cnn(C(C)(C)C(N)=O)c4)cc2OCC3)n(C(C)C)n1 [Taselisib] + O=C(Nc1ccc2[nH]nc(-c3ccncc3)c2c1)[C@@H]1CCN(CC(=O)N2CCN(c3ccc(-c4ncccn4)cc3)CC2)C1 [SCH772984] (first compound max 10 µM, 7x7, partner max 5 µM) | 0.964 | 0.611 | 0.872 | 0.855 | 0.999 | 0.564 | 0.227 | 0.89 | 0.635 | 0.683 | 0.641 | 0.272 | 0.603 | 0.429 | 0.193 | 0.163 | 0.851 | 0.832 | 0.691 | 0.716 |
| CC1(C)CCC(CN2CCN(c3ccc(C(=O)NS(=O)(=O)c4ccc(NCC5CCOCC5)c([N+](=O)[O-])c4)c(Oc4cnc5[nH]ccc5c4)c3)CC2)=C(c2ccc(Cl)cc2)C1 [Venetoclax] + CS(=O)(=O)CCNCc1ccc(-c2ccc3ncnc(Nc4ccc(OCc5cccc(F)c5)c(Cl)c4)c3c2)o1 [Lapatinib] (first compound max 1 µM, 7x7, partner max 10 µM) | 0.235 | 0.501 | 0.308 | 0.74 | 0.668 | 0.13 | 0.194 | 0.554 | 0.947 | 0.341 | 0.202 | 1 | 0.244 | 0.279 | 0.144 | 0.241 | 0.179 | 0.742 | 0.189 | 0.104 |
